Measurements reported in patent US9062078B2, “Substituted 7-azabicyles and their use as orexin receptor modulators” (priority 2013, dated 2015).
Read-outs that look alike come from different tables or passages of the source.

Legend:
rat orexin 1 receptor = rat orexin 1 receptor (Rattus norvegicus, UniProt P56718); assay: Rat orexin 1 receptor radioligand binding (competitive, [3H]-SB674042, HEK293 cell preparations)
human orexin 1 receptor = human orexin 1 receptor (Homo sapiens (Human), UniProt O43613); assay: Human orexin 1 receptor radioligand binding (competitive, [3H]-SB674042, CHO cell preparations)
human orexin 2 receptor = human orexin 2 receptor (Homo sapiens (Human), UniProt O43614); assay: Human orexin 2 receptor radioligand binding (competitive, [3H]-EMPA, HEK293 cell preparations)
[1] = rat orexin 1 receptor, [3H]-SB674042 competition binding, read-out: rOX1 Ki (nm)
[2] = human orexin 1 receptor, [3H]-SB674042 competition binding, read-out: hOX1 Ki (nm)
[3] = human orexin 2 receptor, [3H]-EMPA competition binding, read-out: hOX2 Ki (nm)

human orexin 2 receptor, sequence (O43614 whole entry): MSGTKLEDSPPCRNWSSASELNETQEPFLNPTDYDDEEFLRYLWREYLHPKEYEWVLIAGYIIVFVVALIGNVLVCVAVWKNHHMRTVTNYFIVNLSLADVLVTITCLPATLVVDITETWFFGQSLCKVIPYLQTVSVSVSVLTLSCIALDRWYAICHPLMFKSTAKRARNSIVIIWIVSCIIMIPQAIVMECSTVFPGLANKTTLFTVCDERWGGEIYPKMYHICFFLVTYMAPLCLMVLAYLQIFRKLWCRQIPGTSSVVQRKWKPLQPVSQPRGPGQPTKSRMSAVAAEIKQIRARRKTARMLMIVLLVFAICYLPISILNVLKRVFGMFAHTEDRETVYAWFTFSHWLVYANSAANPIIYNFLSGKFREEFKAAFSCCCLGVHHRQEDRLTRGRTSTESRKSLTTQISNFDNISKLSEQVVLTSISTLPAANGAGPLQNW
human orexin 1 receptor, sequence (O43613 whole entry): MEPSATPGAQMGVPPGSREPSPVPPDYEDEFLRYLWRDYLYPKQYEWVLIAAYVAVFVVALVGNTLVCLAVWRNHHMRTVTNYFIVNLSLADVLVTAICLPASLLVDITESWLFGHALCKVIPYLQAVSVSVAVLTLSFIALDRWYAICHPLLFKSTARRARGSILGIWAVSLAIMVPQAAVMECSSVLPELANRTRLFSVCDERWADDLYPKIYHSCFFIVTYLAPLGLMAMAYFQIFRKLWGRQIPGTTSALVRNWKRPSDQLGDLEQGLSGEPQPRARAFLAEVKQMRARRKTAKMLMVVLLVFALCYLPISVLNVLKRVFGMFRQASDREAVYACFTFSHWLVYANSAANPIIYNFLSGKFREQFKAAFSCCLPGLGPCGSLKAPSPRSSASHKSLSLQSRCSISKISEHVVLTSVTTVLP

Row | Compound | Ki (rat orexin 1 receptor; rOX1 Ki (nm)) [nM] | Ki (human orexin 1 receptor; hOX1 Ki (nm)) [nM] | Ki (human orexin 2 receptor; hOX2 Ki (nm)) [nM] | Ki (rat orexin 1 receptor; [1]) [nM] | Ki (human orexin 1 receptor; [2]) [nM] | Ki (human orexin 2 receptor; [3]) [nM] | Ki (rat orexin 1 receptor; read-out: rOX1 Ki (nm)) [nM] | Ki (human orexin 1 receptor; read-out: hOX1 Ki (nm)) [nM]
1 | O=C(c1cccc(F)c1-c1ncccn1)N1C2CCC1C(Nc1ccc(C(F)(F)F)cn1)C2 (racemic) [Example 192, (±)-(3-fluoro-2-(pyrimidin-2-yl)phenyl)(2-((5-(trifluoromethyl)pyridin-2-yl)amino)-7-azabicyclo[2.2.1]heptan-7-yl)methanone] | 60 | 52 | 1500 | – | – | – | – | –
2 | Cc1ccc(-c2ncccn2)c(C(=O)N2C3CCC2C(COc2ccc(F)cn2)C3)n1 (racemic) [Example 64, (±)-(2-(((5-fluoropyridin-2-yl)oxy)methyl)-7-azabicyclo[2.2.1]heptan-7-yl)(6-methyl-3-(pyrimidin-2-yl)pyridin-2-yl)methanone] | – | – | – | 18 | 24 | 81 | – | –
3 | O=C(c1c(F)cccc1-n1nccn1)N1C2CCC1C(COc1cnc3ccccc3n1)C2 (racemic) [Example 35, (±)-(2-fluoro-6-(2H-1,2,3-triazol-2-yl)phenyl)(2-((quinoxalin-2-yloxy)methyl)-7-azabicyclo[2.2.1]heptan-7-yl)methanone] | – | – | – | 69 | 58 | 693 | – | –
4 | Cc1ccc(C(=O)N2C3CCC2C(COc2ccc(F)cn2)C3)c(-c2ncccn2)c1 (racemic) [Example 122, (±)-(2-(((5-fluoropyridin-2-yl)oxy)methyl)-7-azabicyclo[2.2.1]heptan-7-yl)(4-methyl-2-(pyrimidin-2-yl)phenyl)methanone] | – | – | – | 118 | 154 | 1000 | – | –
5 | CCOc1ccc(C)nc1C(=O)N1C2CCC1C(Nc1cnc3ccccc3n1)C2 (single isomer, unassigned) [Example 207, (±)-(3-ethoxy-6-methylpyridin-2-yl)(2-(quinoxalin-2-ylamino)-7-azabicyclo[2.2.1]heptan-7-yl)methanone] | – | – | – | 120 | 95 | 64 | – | –
6 | O=C(c1ccccc1-n1nccn1)N1C2CCC1C(Nc1cnc3ccccc3n1)C2 (racemic) [Example 204, (±)-(2-(2H-1,2,3-triazol-2-yl)phenyl)(2-(quinoxalin-2-ylamino)-7-azabicyclo[2.2.1]heptan-7-yl)methanone] | 33 | 25 | 220 | – | – | – | – | –
7 | Cc1ccc(-n2ccc(C)n2)c(C(=O)N2C3CCC2C(COc2ccc(F)cn2)C3)n1 (racemic) [Example 67, (±)-(2-(((5-fluoropyridin-2-yl)oxy)methyl)-7-azabicyclo[2.2.1]heptan-7-yl)(6-methyl-3-(3-methyl-1H-pyrazol-1-yl)pyridin-2-yl)methanone] | – | – | – | 48 | 69 | 258 | – | –
8 | Cc1ccc(-c2nc(C)no2)c(C(=O)N2C3CCC2C(COc2ccc(F)cn2)C3)n1 (racemic) [Example 66, (±)-(2-(((5-fluoropyridin-2-yl)oxy)methyl)-7-azabicyclo[2.2.1]heptan-7-yl)(6-methyl-3-(3-methyl-1,2,4-oxadiazol-5-yl)pyridin-2-yl)methanone] | – | – | – | 197 | 293 | 620 | – | –
9 | Cc1cccc(C(=O)N2[C@@H]3CC[C@H]2[C@H](Nc2ncc(C(F)(F)F)cn2)C3)c1-n1nccn1 [Example 272, (3-methyl-2-(2H-1,2,3-triazol-2-yl)phenyl)((1S,2R,4R)-2-((5-(trifluoromethyl)pyrimidin-2-yl)amino)-7-azabicyclo[2.2.1]heptan-7-yl)methanone] | – | – | – | – | – | 742 | 21 | 26
10 | Cc1cnc(C(=O)N2C3CCC2C(Nc2cnc(C(F)(F)F)cn2)C3)c(-n2nccn2)c1 (racemic) [Example 184, (±)-(5-methyl-3-(2H-1,2,3-triazol-2-yl)pyridin-2-yl)(2-(5-(trifluoromethyl)pyrazin-2-yl)amino)-7-azabicyclo[2.2.1]heptan-7-yl)methanone] | – | – | 4100 | 189 | 349 | – | – | –
11 | O=C(c1cccc(F)c1-c1ncccn1)N1[C@@H]2CC[C@H]1[C@H](Nc1ncc(C(F)(F)F)cn1)C2 [Example 271, (3-fluoro-2-(pyrimidin-2-yl)phenyl)((1S,2R,4R)-2-((5-(trifluoromethyl)pyrimidin-2-yl)amino)-7-azabicyclo[2.2.1]heptan-7-yl)methanone] | – | – | – | – | – | 2300 | 41 | 42
12 | Cc1ccc(-c2ncccn2)c(C(=O)N2[C@@H]3CC[C@H]2[C@H](COc2ccccn2)C3)n1 (single isomer, unassigned) [Example 3A, (6-methyl-3-(pyrimidin-2-yl)pyridin-2-yl)((1S*,2R*,4R*)-2-((pyridin-2-yloxy)methyl)-7-azabicyclo[2.2.1]heptan-7-yl)methanone] | 24 | 19 | 268 | – | – | – | – | –
13 | O=C(c1cc(F)ccc1-c1ccn[nH]1)N1C2CCC1C(COc1ccc(F)cn1)C2 (racemic) [Example 109, (±)-(5-fluoro-2-(1H-pyrazol-5-yl)phenyl)(2-(((5-fluoropyridin-2-yl)oxy)methyl)-7-azabicyclo[2.2.1]heptan-7-yl)methanone] | 29 | 20 | 99 | – | – | – | – | –
14 | O=C(c1cc(Cl)ccc1-n1nccn1)N1C2CCC1C(COc1ccc(F)cn1)C2 (racemic) [Example 120, (±)-(5-chloro-2-(2H-1,2,3-triazol-2-yl)phenyl)(2-(((5-fluoropyridin-2-yl)oxy)methyl)-7-azabicyclo[2.2.1]heptan-7-yl)methanone] | – | – | – | 15 | 14 | 124 | – | –
15 | O=C(c1cccc(F)c1-c1ncccn1)N1[C@@H]2CC[C@H]1[C@H](Nc1ccc(C(F)(F)F)cn1)C2 [Example 279, (3-fluoro-2-(pyrimidin-2-yl)phenyl)((1S,2R,4R)-2-((5-(trifluoromethyl)pyridin-2-yl)amino)-7-azabicyclo[2.2.1]heptan-7-yl)methanone] | 15 | 8 | 1100 | – | – | – | – | –
16 | Cc1ccc(N2CCCC2)c(C(=O)N2C3CCC2C(COc2ccc(F)cn2)C3)n1 (racemic) [Example 68, (±)-(2-(((5-fluoropyridin-2-yl)oxy)methyl)-7-azabicyclo[2.2.1]heptan-7-yl)(6-methyl-3-(pyrrolidin-1-yl)pyridin-2-yl)methanone] | – | – | – | 27 | 22 | 576 | – | –
17 | COc1ccc2cccnc2c1C(=O)N1C2CCC1C(COc1ccccn1)C2 (racemic) [Example 88, (±)-(7-methoxyquinolin-8-yl)(2-((pyridin-2-yloxy)methyl)-7-azabicyclo[2.2.1]heptan-7-yl)methanone] | – | – | – | 47 | 49 | 690 | – | –
18 | O=C(c1ccccc1-n1nccn1)N1C2CCC1C(Nc1ccc(C(F)(F)F)cn1)C2 (racemic) [Example 196, (±)-(2-(2H-1,2,3-triazol-2-yl)phenyl)(2-(5-(trifluoromethyl)pyridin-2-yl)amino)-7-azabicyclo[2.2.1]heptan-7-yl)methanone] | 59 | 61 | – | – | – | 1500 | – | –
19 | CCOc1ncc(Br)cc1C(=O)N1C2CCC1C(COc1ccccn1)C2 (racemic) [Example 157, (±)-(5-bromo-2-ethoxypyridin-3-yl)(2-((pyridin-2-yloxy)methyl)-7-azabicyclo[2.2.1]heptan-7-yl)methanone] | 94 | 134 | – | – | – | 537 | – | –
20 | Cc1ccc(-n2nccn2)c(C(=O)N2C3CCC2C(COc2cccnc2)C3)n1 (racemic) [Example 58, (±)-(6-methyl-3-(2H-1,2,3-triazol-2-yl)pyridin-2-yl)(2-((pyridin-3-yloxy)methyl)-7-azabicyclo[2.2.1]heptan-7-yl)methanone] | 88 | 117 | – | – | – | 2400 | – | –
21 | O=C(c1ccc(OC(F)F)cc1-n1nccn1)N1[C@@H]2CC[C@H]1[C@H](Nc1cnc(C(F)(F)F)cn1)C2 [Example 253, (4-(difluoromethoxy)-2-(2H-1,2,3-triazol-2-yl)phenyl)((1S,2R,4R)-2-((5-(trifluoromethyl)pyrazin-2-yl)amino)-7-azabicyclo[2.2.1]heptan-7-yl)methanone] | – | – | – | 155 | 152 | 9600 | – | –
22 | O=C(c1cc(F)ccc1-c1ncccn1)N1[C@@H]2CC[C@H]1[C@H](Nc1cnc(C(F)(F)F)cn1)C2 [Example 243, (5-fluoro-2-(pyrimidin-2-yl)phenyl)((1S,2R,4R)-2-((5-(trifluoromethyl)pyrazin-2-yl)amino)-7-azabicyclo[2.2.1]heptan-7-yl)methanone] | – | – | – | – | – | 723 | 34 | 45
23 | COc1ccc(-n2nccn2)c(C(=O)N2C3CCC2C(COc2ccc(F)cn2)C3)c1 (racemic) [Example 114, (±)-(2-(((5-fluoropyridin-2-yl)oxy)methyl)-7-azabicyclo[2.2.1]heptan-7-yl)(5-methoxy-2-(2H-1,2,3-triazol-2-yl)phenyl)methanone] | 20 | 48 | 73 | – | – | – | – | –
24 | Cc1ccc(C(=O)N2C3CCC2C(COc2ccc(F)cn2)C3)c(-n2nccn2)c1 (racemic) [Example 121, (±)-(2-(((5-fluoropyridin-2-yl)oxy)methyl)-7-azabicyclo[2.2.1]heptan-7-yl)(4-methyl-2-(2H-1,2,3-triazol-2-yl)phenyl)methanone] | – | – | – | 78 | 68 | 340 | – | –
